Where two headings read alike, the source gives them in different places.

This assay concerns the target T1, KCNQ2/3 channels (Homo sapiens, UniProt O43525+O43526).
T1 construct: expressed in transfected cells
In words: Fluorescence assay using a voltage sensitive dye (fluorimetry). Format: cell-based. The settings on record: for EC50: IC50 where % efficacy is negative, read-out: Fluorimetry EC50/IC50.

Where [1] appears, read: CHO-K1, plateau effect relative to saturated retigabine (50 μM) = 100%, CHO-K1 cells expressing KCNQ2/3, negative values = antagonistic, read-out: Fluorimetry % efficacy (retigabine = 100%).
Setting [2] is: CHO-K1 cells expressing KCNQ2/3.

T1 sequence (O43526 whole entry): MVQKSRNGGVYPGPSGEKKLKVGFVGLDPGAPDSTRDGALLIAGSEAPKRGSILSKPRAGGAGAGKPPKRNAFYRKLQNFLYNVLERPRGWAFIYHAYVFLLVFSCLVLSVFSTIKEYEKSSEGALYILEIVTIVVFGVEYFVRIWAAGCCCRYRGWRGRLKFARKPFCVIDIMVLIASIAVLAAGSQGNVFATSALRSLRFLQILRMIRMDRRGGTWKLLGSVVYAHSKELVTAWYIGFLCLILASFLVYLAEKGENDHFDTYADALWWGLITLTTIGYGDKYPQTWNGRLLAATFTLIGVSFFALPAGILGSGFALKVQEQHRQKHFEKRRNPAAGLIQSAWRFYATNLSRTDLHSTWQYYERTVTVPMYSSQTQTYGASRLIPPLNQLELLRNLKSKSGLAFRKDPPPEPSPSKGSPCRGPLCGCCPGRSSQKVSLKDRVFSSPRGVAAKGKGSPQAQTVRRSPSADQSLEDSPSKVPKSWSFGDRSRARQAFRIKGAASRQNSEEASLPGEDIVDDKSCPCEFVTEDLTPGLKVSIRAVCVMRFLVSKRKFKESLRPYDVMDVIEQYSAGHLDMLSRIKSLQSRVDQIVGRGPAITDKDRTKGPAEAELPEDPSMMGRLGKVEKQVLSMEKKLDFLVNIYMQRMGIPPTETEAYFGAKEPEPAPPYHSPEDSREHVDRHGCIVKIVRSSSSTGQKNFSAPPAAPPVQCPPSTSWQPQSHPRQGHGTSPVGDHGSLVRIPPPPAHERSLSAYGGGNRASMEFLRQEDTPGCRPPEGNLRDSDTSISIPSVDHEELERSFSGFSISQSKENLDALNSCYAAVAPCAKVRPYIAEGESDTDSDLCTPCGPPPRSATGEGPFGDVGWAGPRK
T1 sequence (O43525 whole entry): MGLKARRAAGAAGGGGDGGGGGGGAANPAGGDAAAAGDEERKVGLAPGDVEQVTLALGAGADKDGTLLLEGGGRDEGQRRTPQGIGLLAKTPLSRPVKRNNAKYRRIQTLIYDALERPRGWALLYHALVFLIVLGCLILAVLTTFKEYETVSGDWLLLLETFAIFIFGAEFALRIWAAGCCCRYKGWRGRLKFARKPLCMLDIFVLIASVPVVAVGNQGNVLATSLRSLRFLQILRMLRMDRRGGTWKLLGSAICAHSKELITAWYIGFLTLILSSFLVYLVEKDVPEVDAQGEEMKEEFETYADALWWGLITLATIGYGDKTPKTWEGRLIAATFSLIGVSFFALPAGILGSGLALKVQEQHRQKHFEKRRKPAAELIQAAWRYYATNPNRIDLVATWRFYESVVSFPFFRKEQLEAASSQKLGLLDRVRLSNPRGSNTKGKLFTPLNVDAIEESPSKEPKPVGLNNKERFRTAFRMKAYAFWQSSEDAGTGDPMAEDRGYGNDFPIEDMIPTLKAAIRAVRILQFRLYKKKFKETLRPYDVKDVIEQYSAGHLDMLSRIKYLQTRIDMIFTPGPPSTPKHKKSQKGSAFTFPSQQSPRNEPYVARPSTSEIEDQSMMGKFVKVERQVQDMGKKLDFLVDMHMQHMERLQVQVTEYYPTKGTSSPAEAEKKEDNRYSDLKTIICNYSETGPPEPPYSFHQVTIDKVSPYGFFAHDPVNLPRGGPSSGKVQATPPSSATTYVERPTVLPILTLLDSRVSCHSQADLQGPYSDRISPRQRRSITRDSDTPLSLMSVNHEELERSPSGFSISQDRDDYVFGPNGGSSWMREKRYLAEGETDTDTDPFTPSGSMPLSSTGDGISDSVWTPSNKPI

For `CCSc1nc(N2CC(C)OC(C)C2)cc(C)c1C(=O)NCc1cccc(F)c1` (stereo not drawn) [Example 66, 6-(2,6-Dimethyl-morpholin-4-yl)-2-ethylsulfanyl-N-[(3-fluorophenyl)-methyl]-4-methyl-pyridine-3-carboxylic acid amide], under setting [1], the Emax came out at 109%. Also, under setting [2], the EC50 was 983 nM.

As for `CCSc1nc(N2CCOCC2)cc(C)c1C(=O)NCCC1CCCCO1` (stereo not drawn) [Example 68, 2-Ethylsulfanyl-4-methyl-6-morpholin-4-yl-N-(2-tetrahydro-pyran-2-yl-ethyl)-pyridine-3-carboxylic acid amide], under setting [1], the Emax was 134%. For the same compound, the EC50 under setting [2] is 7370 nM.

Regarding `CCSc1nc(N2CCOCC2)cc(C)c1C(=O)NCC1CCCCO1` (stereo not drawn) [Example 69, 2-Ethylsulfanyl-4-methyl-6-morpholin-4-yl-N-(tetrahydro-pyran-2-yl-methyl)-pyridine-3-carboxylic acid amide], the Emax under setting [1] was 160%. In addition, the EC50 under setting [2] came to 4480 nM.

Regarding `CCSc1nc(N2CCC(C)CC2)cc(C)c1C(=O)NCc1cccc(F)c1` [Example 70, 2-Ethylsulfanyl-N-[(3-fluorophenyl)-methyl]-4-methyl-6-(4-methyl-piperidin-1-yl)-pyridine-3-carboxylic acid amide], the Emax under setting [1] was 175%. In addition, the EC50 under setting [2] came to 163 nM.

Turning to `CCSc1nc(N2CCOCC2)cc(C)c1C(=O)NCc1ccccc1-c1ccc(F)cc1` [Example 71, 2-Ethylsulfanyl-N-[[2-(4-fluorophenyl)-phenyl]-methyl]-4-methyl-6-morpholin-4-yl-pyridine-3-carboxylic acid amide], the Emax under setting [1] was -102%. The EC50 under setting [2] stood at 275 nM.

As for `CCOC(=O)CN(C)c1cc(C)c(C(=O)NCc2cccc(F)c2)c(SCC)n1` [Example 72], the Emax (CHO-K1, read-out: Fluorimetry % efficacy (retigabine = 100%)) came to 93%. For the same compound, the EC50 under setting [2] worked out at 2080 nM.

For the compound `CCSc1nc(N2CCN(C3CC3)CC2)cc(C)c1C(=O)NCc1cccc(F)c1` [Example 73, 6-(4-Cyclopropyl-piperazin-1-yl)-2-ethylsulfanyl-N-[(3-fluorophenyl)-methyl]-4-methyl-pyridine-3-carboxylic acid amide], the Emax under setting [1] came out at 67%. Further, the EC50 under setting [2] came out at 3010 nM.

As to `CCSc1nc(N2CCC(C)(C)CC2)cc(C)c1C(=O)NCc1cccc(F)c1` [Example 74, 6-(4,4-Dimethyl-piperidin-1-yl)-2-ethylsulfanyl-N-[(3-fluorophenyl)-methyl]-4-methyl-pyridine-3-carboxylic acid amide], the Emax under setting [1] was found to be 70%. For the same compound, the EC50 under setting [2] is 702 nM.

For `CCSc1nc(N2CCOCC2)cc(C)c1C(=O)NCc1ccc(SC(F)(F)F)cc1` [Example 75, 2-Ethylsulfanyl-4-methyl-6-morpholin-4-yl-N-[[4-(trifluoromethylsulfanyl)-phenyl]-methyl]-pyridine-3-carboxylic acid amide], the Emax under setting [1] came out at 135%. The EC50 under setting [2] turned out to be 61 nM.

For `CCSc1nc(N2CCOCC2)cc(C)c1C(=O)NCC1CCCCC1` [Example 76, N-(Cyclohexyl-methyl)-2-ethylsulfanyl-4-methyl-6-morpholin-4-yl-pyridine-3-carboxylic acid amide], under setting [1], the Emax stood at 179%. For the same compound, the EC50 under setting [2] was 91 nM.

As for `CCSc1nc(N2CCOCC2)cc(C)c1C(=O)NCCOC` [Example 77, 2-Ethylsulfanyl-N-(2-methoxy-ethyl)-4-methyl-6-morpholin-4-yl-pyridine-3-carboxylic acid amide], the Emax under setting [1] was 40%.

For `CCSc1nc(N2CCOCC2)cc(C)c1C(=O)NCCCOC` [Example 78, 2-Ethylsulfanyl-N-(3-methoxy-propyl)-4-methyl-6-morpholin-4-yl-pyridine-3-carboxylic acid amide], the Emax under setting [1] stood at 31%.

On to `CCCCNC(=O)c1c(C)cc(N2CCOCC2)nc1SCC` [Example 80, N-Butyl-2-ethylsulfanyl-4-methyl-6-morpholin-4-yl-pyridine-3-carboxylic acid amide], for which the Emax under setting [1] is 147%. Moreover, the EC50 under setting [2] is 2170 nM.

Take `CCCCCNC(=O)c1c(C)cc(N2CCOCC2)nc1SCC` [Example 81, 2-Ethylsulfanyl-4-methyl-6-morpholin-4-yl-N-pentyl-pyridine-3-carboxylic acid amide]: the Emax under setting [1] was determined as 163%. In addition, under setting [2], the EC50 was found to be 662 nM.

Turning to `CCSc1nc(N2CCOCC2)cc(C)c1C(=O)NCc1ccc(F)c(C(F)(F)F)c1` [Example 82, 2-Ethylsulfanyl-N-[[4-fluoro-3-(trifluoromethyl)-phenyl]-methyl]-4-methyl-6-morpholin-4-yl-pyridine-3-carboxylic acid amide], the Emax under setting [1] came out at 117%. Under setting [2], the EC50 came to 118 nM.

With `CCSc1nc(N2CCOCC2)cc(C)c1C(=O)NCCOC(C)(C)C` [Example 83, N-(2-tert-Butoxy-ethyl)-2-ethylsulfanyl-4-methyl-6-morpholin-4-yl-pyridine-3-carboxylic acid amide], the Emax under setting [1] worked out at 182%. Moreover, under setting [2], the EC50 worked out at 2800 nM.

As to `CCSc1nc(N2CCOCC2)cc(C)c1C(=O)NCCCC(F)(F)F` [Example 84, 2-Ethylsulfanyl-4-methyl-6-morpholin-4-yl-N-(4,4,4-trifluoro-butyl)-pyridine-3-carboxylic acid amide], the Emax under setting [1] worked out at 203%. In addition, under setting [2], the EC50 turned out to be 357 nM.

In the case of `CCSc1nc(N2CCOCC2)cc(C)c1C(=O)NCc1ccc(F)cc1-c1ccc(F)cc1` [Example 85, 2-Ethylsulfanyl-N-[[4-fluoro-2-(4-fluorophenyl)-phenyl]-methyl]-4-methyl-6-morpholin-4-yl-pyridine-3-carboxylic acid amide], the Emax under setting [1] is -61%. Moreover, the EC50 under setting [2] is 107 nM.

Consider `COc1nc(N2CCOCC2)cc(C)c1C(=O)NCCCC(C)(C)C` [Example 86, N-(4,4-Dimethyl-pentyl)-2-methoxy-4-methyl-6-morpholin-4-yl-pyridine-3-carboxylic acid amide], for which the Emax under setting [1] was found to be 236%. The EC50 under setting [2] was 172 nM.

`COc1nc(N2CCOCC2)cc(C)c1C(=O)NCc1ccc(F)c(F)c1` [Example 87, N-[(3,4-Difluoro-phenyl)-methyl]-2-methoxy-4-methyl-6-morpholin-4-yl-pyridine-3-carboxylic acid amide]: under setting [1], the Emax was found to be 138%. Moreover, the EC50 under setting [2] came to 311 nM.

Regarding `COc1nc(N2CCOCC2)cc(C)c1C(=O)NCc1ccccc1-c1ccccc1` [Example 88, 2-Methoxy-4-methyl-6-morpholin-4-yl-N-[(2-phenyl-phenyl)-methyl]-pyridine-3-carboxylic acid amide], the Emax under setting [1] was -83%. Further, the EC50 under setting [2] came out at 253 nM.

Turning to `CCOc1nc(N2CCOCC2)cc(C)c1C(=O)NCCCC(C)(C)C` [Example 89, N-(4,4-Dimethyl-pentyl)-2-ethoxy-4-methyl-6-morpholin-4-yl-pyridine-3-carboxylic acid amide], under setting [1], the Emax stood at 268%. Further, the EC50 under setting [2] was determined as 138 nM.

For `CCOc1nc(N2CCOCC2)cc(C)c1C(=O)NCc1cc(F)cc(F)c1` [Example 90, N-[(3,5-Difluoro-phenyl)-methyl]-2-ethoxy-4-methyl-6-morpholin-4-yl-pyridine-3-carboxylic acid amide], the Emax under setting [1] was 134%. For the same compound, the EC50 under setting [2] was determined as 122 nM.

For the compound `CCOc1nc(N2CCOCC2)cc(C)c1C(=O)NCc1ccc(F)c(F)c1` [Example 91, N-[(3,4-Difluoro-phenyl)-methyl]-2-ethoxy-4-methyl-6-morpholin-4-yl-pyridine-3-carboxylic acid amide], under setting [1], the Emax was determined as 127%. Under setting [2], the EC50 came to 117 nM.

In the case of `CCOc1nc(N2CCOCC2)cc(C)c1C(=O)NCc1ccccc1-c1ccccc1` [Example 92, 2-Ethoxy-4-methyl-6-morpholin-4-yl-N-[(2-phenyl-phenyl)-methyl]-pyridine-3-carboxylic acid amide], under setting [1], the Emax is -79%. The EC50 under setting [2] came out at 128 nM.

For the compound `CCSc1nc(N2CCOCC2)cc(C)c1C(=O)NCc1cc(F)cc(C(F)(F)F)c1` [Example 93, 2-Ethylsulfanyl-N-[[3-fluoro-5-(trifluoromethyl)-phenyl]-methyl]-4-methyl-6-morpholin-4-yl-pyridine-3-carboxylic acid amide], under setting [1], the Emax came to 103%. The EC50 under setting [2] is 54 nM.

For `CCSc1nc(N2CCOCC2)cc(C)c1C(=O)NCc1cccc(C(F)(F)F)c1F` [Example 94, 2-Ethylsulfanyl-N-[[2-fluoro-3-(trifluoromethyl)-phenyl]-methyl]-4-methyl-6-morpholin-4-yl-pyridine-3-carboxylic acid amide], under setting [1], the Emax turned out to be 111%. In addition, under setting [2], the EC50 turned out to be 39 nM.

Regarding `CCSc1nc(N2CCOCC2)cc(C)c1C(=O)NCc1cc(C(F)(F)F)ccc1F` [Example 95, 2-Ethylsulfanyl-N-[[2-fluoro-5-(trifluoromethyl)-phenyl]-methyl]-4-methyl-6-morpholin-4-yl-pyridine-3-carboxylic acid amide], the Emax under setting [1] stood at 62%. The EC50 under setting [2] came out at 56 nM.

For the compound `CCSc1nc(N2CCCOCC2)cc(C)c1C(=O)NCc1cccc(F)c1` [Example 96, 2-Ethylsulfanyl-N-[(3-fluorophenyl)-methyl]-4-methyl-6-([1,4]oxazepan-4-yl)-pyridine-3-carboxylic acid amide], the Emax under setting [1] was determined as 173%. Also, the EC50 under setting [2] came to 1100 nM.

For `CCSc1nc(N2CCOCC2)cc(C)c1C(=O)NCc1ccc(OC(F)(F)F)cc1` [Example 97, 2-Ethylsulfanyl-4-methyl-6-morpholin-4-yl-N-[[4-(trifluoromethyloxy)-phenyl]methyl]-pyridine-3-carboxylic acid amide], the Emax under setting [1] stood at 136%. In addition, the EC50 under setting [2] came to 67 nM.

Take `COc1nc(N2CCCOCC2)cc(C)c1C(=O)NCc1cccc(F)c1` [Example 98, N-[(3-Fluorophenyl)-methyl]-2-methoxy-4-methyl-6-([1,4]oxazepan-4-yl)-pyridine-3-carboxylic acid amide]: the Emax under setting [1] is 146%. In addition, the EC50 under setting [2] came to 2310 nM.

Values taken from patent US9168259B2 (GRÜNENTHAL GMBH, priority 2010, dated 2015).
